{"source": "patent US4105659A", "about": "“1,2,3,4,5,6-Hexahydro-2,6-methano-3-benzazocines” (Sterling Drug Inc., priority 1964, dated 1978)", "key": {"[1]": {"system": "analgesic effect of meperidine hydrochloride", "experiment": "Antagonism of meperidine analgesia, modified D'Amour-Smith test", "settings": "for ED50: Rattus norvegicus, read-out: dosage of antagonist which reduced the analgesic effect of meperidine by approximately 50 per cent; for dosage of antagonist which reduced the analgesic effect of meperidine by approximately 50 per cent: subcutaneous, rats, lactic acid acid-addition salt, versus 60 mg./kg. meperidine hydrochloride"}, "[2]": {"system": "analgesic effect of morphine sulfate", "experiment": "Antagonism of morphine analgesia, modified D'Amour-Smith test", "settings": "for dosage of antagonist which reduced the analgesic effect of morphine by approximately 50 per cent: subcutaneous, rats, lactic acid acid-addition salt, versus 15 mg./kg. morphine sulfate; for ED50: Rattus norvegicus, sc, read-out: dosage of antagonist which reduced the analgesic effect of morphine by approximately 50 per cent"}, "[3]": {"experiment": "Solubility, pH of solution and precipitation on pH adjustment or dilution", "assay_type": "physicochemical", "settings": "for pH at which a precipitate formed: 1 percent solution, addition of N/10 sodium hydroxide", "method": "A. A mixture of 8.7 g. of racemic cis 1,2,3,4,5,6-hexahydro-6,11-dimethyl-8-hydroxy-2,6-methano-3-benzazocine (which is also known as racemic cis 2'-hydroxy-5,9-dimethyl-6,7-benzomorphan), 6.0 g of 1-bromo-3-methyl-2-butene, 5.0 g. of sodium bicarbonate, and 125 ml. of N,N-dimethylformamide was stirred and refluxed for approximately 41/2 hours. The reaction mixture was then filtered, and the solid on the filter was washed with ethanol. The filtrate and the wash liquor were combined, concentrated under reduced pressure, and then extracted with chloroform. The chloroform extract was concentrated under reduced pressure to yield a syrup which weighed 15.8 g. This syrup was dissolved in 120 ml. of diethyl ether and the resulting solution was filtered to remove approximately one-half gram of a brown amorphous solid. The filtrate was extracted with a mixture of 5 ml. of concentrated hydrochloric acid and 20 ml. of water. To the extract there was added 5 ml. of concentrated ammonium hydroxide solution and ice. A pale tan syrup separated from solution and after stirring, this syrup solidified. The resulting pale tan solid was collected and dried; it weighed 10.6 g. After two recrystallizations from a mixture of methyl alcohol and water, with charcoaling, this solid weighed 8.2 g. and melted at 145°-147° C. The product thus obtained was racemic cis 1,2,3,4,5,6-hexahydro-3-(3-methyl-2-butenyl)-6,11-dimethyl-8-hydroxy-2,6-methano-3-benzazocine (Formula II: Y = --CH2 --CH=C(CH3)2; R^3 = --H), having the molecular formula C19 H27 NO. This product was soluble in a mixture of 0.35 ml. of N/2 hydrochloric acid and 0.15 ml. of water to the extent of 10 percent, the pH of the 1 percent solution being 2.80; and when the pH of the 1 percent solution was gradually raised by addition of N/10 sodium hydroxide solution, a precipitate formed at pH 5.4. When the base was converted to the hydrochloride and was then regenerated from this salt it melted at 151°-153° C. The hydrochloride of this base melted at 245°-247° C. (dec.). and the cyclohexylsulfamate of this base melted at 163°-166° C. The base formed a grayish-yellowtannate.\nThe racemic trans product was converted to its hydrobromide, having the molecular formula C19 H27 NO·HBr, which was obtained as white needles which melted at 240°-241° C.\nThe dextro trans product was converted to its hydrochloride, having the molecular formula C19 H27 NO·HCl, which was obtained as white crystals which melted at 254°-255° C.\nThe levo trans product was converted to its hydrochloride, having the molecular formula C19 H27 NO·HCl, which was obtained as white crystals which melted at 254°-255° C. (dec.); this hydrochloride was soluble in water to the extent of 5 percent, the pH of a 1 percent aqueous solution being 5.7, a precipitate being formed when the 1 percent aqueous solution was adjusted to 7.0 by addition of N/10 sodium hydroxide solution.\nA. A mixture of 9.25 g. of racemic cis 1,2,3,4,5,6-hexahydro-6-ethyl-11-methyl-8-hydroxy-2,6-methano-3-benzazocine, 6.0 g. of 1-bromo-3-methyl-2-butene, 125 ml. of N,N-dimethylformamide, and 5.0 g. of sodium bicarbonate was stirred and refluxed for approximately 41/2 hours. The reaction mixture was then filtered, and the solid collected on the filter was washed with ethanol. The filtrate and the wash liquor were combined and concentrated under reduced pressure. To the resulting residue there was added 50 ml. of diethyl ether, and the mixture was filtered. Approximately 0.6 g. of solid was collected on the filter, and 8.2 g. of brown solid separated from the filtrate and was collected by filtration. These two crops of solid (8.8 g.) were combined, 25 ml. of methanol was added, and the mixture was boiled. Only a small portion of the solid dissolved. This mixture was mixed with 25 ml. of water and chilled. The mixture was filtered to collect 8.3 g. of pale tan solid which melted at 156°-158° C. […]"}, "[4]": {"experiment": "Clinical analgesia in human subjects", "assay_type": "in vivo", "settings": "for dose approximately equivalent to 10 mg. of morphine sulfate as an analgesic: parenterally in humans; for analgesia in human subjects: parenterally", "method": "In human subjects, however, the compounds of Formulas I and II are valuable and effective agents for producing analgesia when administered in the general range of about 10 to 500 mg. per 70 kg. of subject weight, the dosage depending of course on the particular compound, the mode of administration, and the like. The following clinical results which were obtained in human subjects are illustrative. For oral administration the free base was used, and for parenteral (usually intramuscular) administration an aqueous solution of the lactate salt was used; the dosages are expressed in each instance in terms of milligrams of base per 70 kilograms of body weight of the human subject."}, "[5]": {"settings": "ethanol, organic solvent or mixture, read-out: solubility in ethanol"}, "[6]": {"settings": "water, read-out: solubility in water"}}, "note": "Structures can show the parent of a compound that is named as a salt. Where two headings read alike, the source gives them in different places."}
{"molecule": "CC(C)=CCN1CC[C@@]2(C)c3cc(O)ccc3C[C@@H]1[C@@H]2C", "note": "(relative stereo) [4A (cyclohexylsulfamate), racemic cis 1,2,3,4,5,6-hexahydro-3-(3-methyl-2-butenyl)-6,11-dimethyl-8-hydroxy-2,6-methano-3-benzazocine]", "values": [{"measurement": "ED50", "setting": "[1]; po", "result": 125, "unit": "mg/kg"}]}
{"molecule": "CC(C)=CCN1CC[C@]2(C)c3cc(O)ccc3C[C@H]1C2C", "note": "(relative stereo) [4D (dextro), cis 1,2,3,4,5,6-hexahydro-3-(3-methyl-2-butenyl)-6,11-dimethyl-8-hydroxy-2,6-methano-3-benzazocine]", "values": [{"measurement": "dosage of antagonist which reduced the analgesic effect of morphine by approximately 50 per cent", "setting": "[2]", "result": 21.0, "unit": "mg/kg"}, {"measurement": "dosage of antagonist which reduced the analgesic effect of meperidine by approximately 50 per cent", "setting": "[1]", "result": 18.0, "unit": "mg/kg"}]}
{"molecule": "CC(C)=CCN1CC[C@]2(C)c3cc(O)ccc3C[C@H]1C2C", "note": "(relative stereo) [4D (levo), cis 1,2,3,4,5,6-hexahydro-3-(3-methyl-2-butenyl)-6,11-dimethyl-8-hydroxy-2,6-methano-3-benzazocine]", "values": [{"measurement": "dosage of antagonist which reduced the analgesic effect of morphine by approximately 50 per cent", "setting": "[2]", "result": 4.3, "unit": "mg/kg"}, {"measurement": "dosage of antagonist which reduced the analgesic effect of meperidine by approximately 50 per cent", "setting": "[1]", "result": 1.05, "unit": "mg/kg"}]}
{"molecule": "CC(C)=CCN1CC[C@@]2(C)c3cc(O)ccc3C[C@H]1C2C", "note": "(relative stereo) [4E (dextro) hydrochloride, trans 1,2,3,4,5,6-hexahydro-3-(3-methyl-2-butenyl)-6,11-dimethyl-8-hydroxy-2,6-methano-3-benzazocine]", "values": [{"measurement": "pH of a 1 percent aqueous solution", "setting": "[3]", "result": 5.6}, {"measurement": "pH at which a precipitate formed", "setting": "[3]", "result": "> 6.9"}, {"measurement": "solubility in water", "setting": "[3]; water", "result": 5, "unit": "%"}]}
{"molecule": "CC(C)=CCN1CC[C@@]2(C)c3cc(O)ccc3C[C@H]1C2C", "note": "(relative stereo) [4E (dextro), trans 1,2,3,4,5,6-hexahydro-3-(3-methyl-2-butenyl)-6,11-dimethyl-8-hydroxy-2,6-methano-3-benzazocine]", "values": [{"measurement": "dosage of antagonist which reduced the analgesic effect of meperidine by approximately 50 per cent", "setting": "[1]", "result": 13.0, "unit": "mg/kg"}]}
{"molecule": "CC(C)=CCN1CC[C@@]2(C)c3cc(O)ccc3C[C@H]1C2C", "note": "(relative stereo) [4E (levo) hydrochloride, trans 1,2,3,4,5,6-hexahydro-3-(3-methyl-2-butenyl)-6,11-dimethyl-8-hydroxy-2,6-methano-3-benzazocine]", "values": [{"measurement": "pH of a 1 percent aqueous solution", "setting": "[3]", "result": 5.7}, {"measurement": "pH at which a precipitate formed", "setting": "[3]", "result": 7.0}, {"measurement": "solubility in water", "setting": "[3]; water", "result": 5, "unit": "%"}]}
{"molecule": "CC(C)=CCN1CC[C@@]2(C)c3cc(O)ccc3C[C@H]1C2C", "note": "(relative stereo) [4E (levo), trans 1,2,3,4,5,6-hexahydro-3-(3-methyl-2-butenyl)-6,11-dimethyl-8-hydroxy-2,6-methano-3-benzazocine]", "values": [{"measurement": "dosage of antagonist which reduced the analgesic effect of meperidine by approximately 50 per cent", "setting": "[1]", "result": 0.55, "unit": "mg/kg"}]}
{"molecule": "CC(C)=CCN1CC[C@@]2(C)c3cc(O)ccc3C[C@@H]1[C@H]2C", "note": "(relative stereo) [4E (racemic) hydrobromide, trans 1,2,3,4,5,6-hexahydro-3-(3-methyl-2-butenyl)-6,11-dimethyl-8-hydroxy-2,6-methano-3-benzazocine]", "values": [{"measurement": "solubility", "setting": "[3]; [5]", "result": 10000, "unit": "µg/mL"}, {"measurement": "solubility", "setting": "[3]; [6]", "result": "< 2500", "unit": "µg/mL"}]}
{"molecule": "CC(C)=CCN1CC[C@@]2(C)c3cc(O)ccc3C[C@@H]1[C@H]2C", "note": "(relative stereo) [4E (racemic), trans 1,2,3,4,5,6-hexahydro-3-(3-methyl-2-butenyl)-6,11-dimethyl-8-hydroxy-2,6-methano-3-benzazocine]", "values": [{"measurement": "ED50", "setting": "[1]; sc", "result": 3.3, "unit": "mg/kg"}]}
{"molecule": "C=C(C)CN1CC[C@@]2(C)c3cc(O)ccc3C[C@@H]1[C@@H]2C", "note": "(relative stereo) [8A hydrochloride, 1,2,3,4,5,6-Hexahydro-3-(2-methyl-2-propenyl)-6,11-dimethyl-8-hydroxy-2,6-methano-3-benzazocine]", "values": [{"measurement": "solubility", "setting": "[3]; [5]", "result": "< 10000", "unit": "µg/mL"}, {"measurement": "solubility", "setting": "[3]; [6]", "result": "< 2500", "unit": "µg/mL"}]}
{"molecule": "C=CCN1CC[C@@]2(CC)c3cc(O)ccc3C[C@@H]1[C@@H]2C", "note": "(relative stereo) [Example 1A, racemic cis 1,2,3,4,5,6-hexahydro-3-allyl-6-ethyl-11-methyl-8-hydroxy-2,6-methano-3-benzazocine]", "values": [{"measurement": "dose approximately equivalent to 10 mg. of morphine sulfate as an analgesic", "setting": "[4]", "result": "~5", "unit": "mg"}, {"measurement": "analgesia in human subjects", "setting": "[4]; 5 mg./kg. and 10 mg./kg.", "result": "effective and satisfactory analgesia"}, {"measurement": "ED50", "setting": "[2]", "result": 0.044, "unit": "mg/kg"}, {"measurement": "ED50", "setting": "[1]; sc", "result": 0.049, "unit": "mg/kg"}]}
{"molecule": "C=CCN1CC[C@@]2(CC)c3cc(OC(C)=O)ccc3C[C@@H]1[C@@H]2C", "note": "(relative stereo) [Example 1B, racemic cis 1,2,3,4,5,6-hexahydro-3-allyl-6-ethyl-11-methyl-8-acetoxy-2,6-methano-3-benzazocine]", "values": [{"measurement": "ED50", "setting": "[1]; sc", "result": 0.027, "unit": "mg/kg"}]}
{"molecule": "CC[C@]12CCN(CC=C(C)C)[C@H](Cc3ccc(O)cc31)[C@@H]2C", "note": "(relative stereo) [Example 7A, racemic cis 1,2,3,4,5,6-hexahydro-3-(3-methyl-2-butenyl)-6-ethyl-11-methyl-8-hydroxy-2,6-methano-3-benzazocine]", "values": [{"measurement": "dose approximately equivalent to 10 mg. of morphine sulfate as an analgesic", "setting": "[4]", "result": "~40", "unit": "mg"}, {"measurement": "analgesia in human subjects", "setting": "[4]; 10 mg./70 kg. to 80 mg./70 kg.", "result": "effective and satisfactory analgesia"}, {"measurement": "solubility", "setting": "[3]; dilute hydrochloric acid, mixture of 0.34 ml. of N/2 hydrochloric acid and 19.66 ml. of water, read-out: solubility in dilute hydrochloric acid", "result": "< 2500", "unit": "µg/mL"}, {"measurement": "solubility", "setting": "[3]; [5]", "result": "< 10000", "unit": "µg/mL"}, {"measurement": "ED50", "setting": "[2]", "result": 11.6, "unit": "mg/kg"}, {"measurement": "ED50", "setting": "[1]; sc", "result": 10.9, "unit": "mg/kg"}]}
{"molecule": "C=C(C)CN1CC[C@@]2(C)c3cc(O)ccc3C[C@@H]1[C@@H]2C", "note": "(relative stereo) [Example 8A, 1,2,3,4,5,6-Hexahydro-3-(2-methyl-2-propenyl)-6,11-dimethyl-8-hydroxy-2,6-methano-3-benzazocine]", "values": [{"measurement": "ED50", "setting": "[2]", "result": 0.19, "unit": "mg/kg"}, {"measurement": "ED50", "setting": "[1]; sc", "result": 0.094, "unit": "mg/kg"}]}
{"molecule": "CCC12CCN(CC=C(C)C)C(Cc3ccc(O)cc31)C2C", "note": "(stereo not drawn) [7D (dextro cis), dextro cis 1,2,3,4,5,6-hexahydro-(3-methyl-2-butenyl)-6-ethyl-11-methyl-8-hydroxy-2,6-methano-3-benzazocine]", "values": [{"measurement": "dosage of antagonist which reduced the analgesic effect of meperidine by approximately 50 per cent", "setting": "[1]", "result": 19.5, "unit": "mg/kg"}]}
{"molecule": "CCC12CCN(CC=C(C)C)C(Cc3ccc(O)cc31)C2C", "note": "(stereo not drawn) [7D (levo cis), levo cis 1,2,3,4,5,6-hexahydro-(3-methyl-2-butenyl)-6-ethyl-11-methyl-8-hydroxy-2,6-methano-3-benzazocine]", "values": [{"measurement": "dosage of antagonist which reduced the analgesic effect of meperidine by approximately 50 per cent", "setting": "[1]", "result": 3.1, "unit": "mg/kg"}]}
{"molecule": "racemic cis 1,2,3,4,5,6-hexahydro-3-(3-methyl-2-butenyl)-6-ethyl-11-methyl-8-cyclopropanecarbonyloxy-2,6-methano-3-benzazocine hydrochloride [Example 7C]", "values": [{"measurement": "dosage of antagonist which reduced the analgesic effect of meperidine by approximately 50 per cent", "setting": "[1]", "result": 0.0022, "unit": "mg/kg"}]}
